Reference: the supplement of paper PMC7017272
± gives the standard deviation of the averaged measurements.

Assays:
Conditions in all cases: treatment time: 3 days
[1] = tested on: UT-SCC-24A; assay: maximal % inhibition of viability relative to DMSO; higher = stronger effect
Method: (§1)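 HNSCC cell lines (500 cells/well, 384-well) were cultured on plastic, on top of (2D) or embedded (3D) in Matrigel or human leiomyoma matrix Myogel (500 ug/mL; Myogel 3D mixed with rat collagen I). Cells were treated for 3 days with 5 ten-fold concentrations of each drug, and viability was read by CellTiter-Glo. Viability was normalised to DMSO (0% inhibition) and 100 uM benzethonium chloride (100% inhibition) controls and fitted with the FIMM DSRT pipeline to give IC50 (nM), maximal % inhibition and the drug sensitivity score (DSS). Suffixes _1/_2/_3 on drug names are replicates.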

[2] = tested on: UT-SCC-106A; assay: drug sensitivity score (DSS); higher = more sensitive; extreme values may be limits of the assay
Outline: (§2)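 The FIMM pipeline was used to fit percent-inhibition dose–response curves, giving IC50, maximal inhibition and drug sensitivity score. Input data were CellTiter-Glo 2.0 luminescence readings, normalised to vehicle (0.1% DMSO) and cell-killing control wells, from HPV-negative HNSCC cell lines seeded at 500 cells/well in 384-well plates. Cells sat on plastic, on Matrigel or Myogel coatings (500 µg/mL), or within Matrigel or Myogel plus rat collagen I, and received compounds at five 10-fold concentrations for 3 days.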

[3] = tested on: UT-SCC-14; assay: as above
Outline: as §2

[4] = tested on: UT-SCC-24B; assay: as above
Outline: as §2

[5] = tested on: UT-SCC-28; assay: as above
Outline: as §2

[6] = tested on: UT-SCC-40; assay: as above
Outline: as §2

[7] = tested on: UT-SCC-42A; assay: as above
Outline: as §2

[8] = tested on: UT-SCC-42B; assay: as above
Outline: as §2

[9] = tested on: UT-SCC-44; assay: as above
Outline: as §2

[10] = tested on: UT-SCC-73; assay: as above
Outline: as §2

[11] = tested on: UT-SCC-81; assay: as above
Outline: as §2

[12] = tested on: UT-SCC-8; assay: as above
Outline: as §2

[13] = tested on: UT-SCC-28; assay: relative IC50 (midpoint of the fitted curve; maximal inhibition may be below 50%); higher = less potent
Outline: as §2

[14] = tested on: UT-SCC-42A; assay: as above
Outline: as §2

[15] = tested on: UT-SCC-81; assay: as above
Outline: as §2

[16] = tested on: UT-SCC-24A; assay: relative IC50 (midpoint of the fitted curve; maximal inhibition may be below 50%); higher = less potent
Method: as §1

[17] = culture condition: embedded in Matrigel
[18] = culture condition: embedded in Myogel + collagen I
[19] = culture condition: on top of Matrigel
[20] = culture condition: on top of Myogel
[21] = culture condition: plastic 2D (no matrix)

relative IC50 [13, 17]: 330 nM
relative IC50 [13, 18]: 1050 nM
relative IC50 [13, 19]: 244 nM
relative IC50 [13, 21]: 352 nM
relative IC50 [14, 17]: 1510 nM
relative IC50 [14, 18]: 1110 nM
relative IC50 [14, 19]: 1320 nM
relative IC50 [14, 20]: 1410 nM
relative IC50 [14, 21]: 1090 nM
relative IC50 [15, 17]: 396 nM
relative IC50 [15, 18]: 748 nM
relative IC50 [15, 19]: 1300 nM
relative IC50 [15, 20]: 1040 nM
relative IC50 [15, 21]: 1140 nM
relative IC50 [16, 17]: 577 nM
relative IC50 [16, 18]: 436 nM
relative IC50 [16, 19]: 483 nM
relative IC50 [16, 20]: 818 nM
relative IC50 [16, 21]: 416 nM
Structure (SMILES): Cc1c(CN2CCN(C(=O)[C@H](C)O)CC2)sc2c(N3CCOCC3)nc(-c3cnc(N)nc3)nc12 [Apitolisib]
maximal % inhibition of viability [1, 17]: 90.3 ± 1.6%
maximal % inhibition of viability [1, 18]: 85.4 ± 2.3%
maximal % inhibition of viability [1, 19]: 87.7 ± 0.2%
maximal % inhibition of viability [1, 20]: 83.4 ± 1.9%
maximal % inhibition of viability [1, 21]: 88.57 ± 0.29%
drug sensitivity score [2, 17]: 11.7 ± 0.66 DSS
drug sensitivity score [2, 18]: 6.97 ± 1 DSS
drug sensitivity score [2, 19]: 10.8 ± 0.35 DSS
drug sensitivity score [2, 20]: 6.23 ± 0.6 DSS
drug sensitivity score [2, 21]: 9.27 ± 1 DSS
drug sensitivity score [3, 17]: 8.77 ± 1.1 DSS
drug sensitivity score [3, 18]: 6.9 ± 1.9 DSS
drug sensitivity score [3, 19]: 7.97 ± 1.6 DSS
drug sensitivity score [3, 20]: 6.43 ± 1.1 DSS
drug sensitivity score [3, 21]: 6.47 ± 1.7 DSS
drug sensitivity score [4, 17]: 10.8 ± 1.8 DSS
drug sensitivity score [4, 18]: 11.8 ± 1.1 DSS
drug sensitivity score [4, 19]: 10.6 ± 0.76 DSS
drug sensitivity score [4, 20]: 9.6 ± 0.2 DSS
drug sensitivity score [4, 21]: 11.1 ± 1 DSS
drug sensitivity score [5, 17]: 10.4 ± 1.3 DSS
drug sensitivity score [5, 18]: 9 ± 2 DSS
drug sensitivity score [5, 19]: 12.4 ± 1.5 DSS
drug sensitivity score [5, 21]: 10.8 ± 0.51 DSS
drug sensitivity score [6, 17]: 9.4 ± 0.27 DSS
drug sensitivity score [6, 18]: 7.23 ± 0.25 DSS
drug sensitivity score [6, 19]: 8.07 ± 0.49 DSS
drug sensitivity score [6, 20]: 5.3 ± 1.7 DSS
drug sensitivity score [6, 21]: 6.33 ± 1.2 DSS
drug sensitivity score [7, 17]: 7.43 ± 0.45 DSS
drug sensitivity score [7, 18]: 8.1 ± 1.3 DSS
drug sensitivity score [7, 19]: 8.03 ± 1.3 DSS
drug sensitivity score [7, 20]: 7.07 ± 0.4 DSS
drug sensitivity score [7, 21]: 8.8 ± 1.1 DSS
drug sensitivity score [8, 17]: 7.13 ± 2.4 DSS
drug sensitivity score [8, 19]: 5.47 ± 0.81 DSS
drug sensitivity score [8, 20]: 4.4 ± 1 DSS
drug sensitivity score [8, 21]: 4.43 ± 0.93 DSS
drug sensitivity score [9, 17]: 9.77 ± 0.86 DSS
drug sensitivity score [9, 18]: 6.17 ± 1.4 DSS
drug sensitivity score [9, 19]: 8.4 ± 0.1 DSS
drug sensitivity score [9, 20]: 8.03 ± 2.9 DSS
drug sensitivity score [9, 21]: 6.67 ± 0.55 DSS
drug sensitivity score [10, 17]: 9 ± 1.2 DSS
drug sensitivity score [10, 18]: 8.2 ± 1.4 DSS
drug sensitivity score [10, 19]: 7.8 ± 0.36 DSS
drug sensitivity score [10, 20]: 7.37 ± 0.15 DSS
drug sensitivity score [10, 21]: 7.23 ± 1.2 DSS
drug sensitivity score [11, 17]: 14.9 ± 3 DSS
drug sensitivity score [11, 18]: 10.4 ± 0.81 DSS
drug sensitivity score [11, 19]: 8.87 ± 0.71 DSS
drug sensitivity score [11, 20]: 8.53 ± 1.1 DSS
drug sensitivity score [11, 21]: 8.8 ± 1.8 DSS
drug sensitivity score [12, 17]: 9.63 ± 0.38 DSS
drug sensitivity score [12, 18]: 6.2 ± 2.1 DSS
drug sensitivity score [12, 19]: 9.23 ± 0.51 DSS
drug sensitivity score [12, 20]: 9.13 ± 1 DSS
drug sensitivity score [12, 21]: 9.17 ± 0.32 DSS
